Counter-ions that a name gives are not always drawn. Where only a bound is given, the exact number is not on record here.

Broadly, the EC50 is the concentration at which the effect is half-maximal.

The assay deals with human KOR receptor (Homo sapiens, UniProt P41145). The assay is described as follows: IP-One HTRF assay, potency of KOR agonists, dose-response in transiently transfected COS-7 cells. Format: cell-based.
Sequence of human KOR receptor (P41145 whole entry): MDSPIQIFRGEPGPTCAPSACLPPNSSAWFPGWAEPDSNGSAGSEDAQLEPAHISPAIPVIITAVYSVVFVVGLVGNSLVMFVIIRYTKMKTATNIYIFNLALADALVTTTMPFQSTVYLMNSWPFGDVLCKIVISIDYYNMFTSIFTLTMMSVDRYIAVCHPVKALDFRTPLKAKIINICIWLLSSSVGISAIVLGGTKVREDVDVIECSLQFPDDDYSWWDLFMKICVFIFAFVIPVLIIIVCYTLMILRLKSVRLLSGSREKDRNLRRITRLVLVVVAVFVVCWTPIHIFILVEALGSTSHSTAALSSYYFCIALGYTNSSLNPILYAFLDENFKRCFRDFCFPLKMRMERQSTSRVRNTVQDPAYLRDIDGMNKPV

Turning to `COc1cccc([C@@H](CN2CC[C@H](O)C2)N(C)C(=O)Cc2ccc3c(c2)NC(=O)CS3)c1` [Example 131, N-((S)-2-((S)-3-hydroxypyrrolidin-1-yl)-1-(3-methoxyphenyl)ethyl)-N-methyl-2-(3-oxo-3,4-dihydro-2H-benzo[b][1,4]thiazin-6-yl)acetamide], the concentration giving a half-maximal response (EC50) was at most 50 nM.

Regarding `CN(C(=O)Cc1ccc2c(c1)NC(=O)C2)[C@H](CN1CC[C@H](O)C1)c1cccc(-c2cncs2)c1` [Example 216, N-((S)-2-((S)-3-hydroxypyrrolidin-1-yl)-1-(3-(thiazol-5-yl)phenyl)ethyl)-N-methyl-2-(2-oxoindolin-6-yl)acetamide], the half-maximal effective concentration (EC50) is at most 50 nM.

`CO[C@H]1CCN(C[C@H](c2cccc(OC(F)(F)F)c2)N(C)C(=O)Cc2ccc3c(c2)NC(=O)CS3(=O)=O)C1` [Example 15, 2-(1,1-dioxido-3-oxo-3,4-dihydro-2H-benzo[b][1,4]thiazin-6-yl)-N-((S)-2-((S)-3-methoxypyrrolidin-1-yl)-1-(3-(trifluoromethoxy)phenyl)ethyl)-N-methylacetamide]: the EC50 is at most 50 nM.

Regarding `CN(C(=O)Cc1ccc2c(c1)NS(=O)(=O)C2)[C@H](CN1CC[C@H](O)C1)c1cccc(C(F)(F)F)c1` [Example 9, 2-(2,2-dioxido-1,3-dihydrobenzo[c]isothiazol-6-yl)-N-((S)-2-((S)-3-hydroxypyrrolidin-1-yl)-1-(3-(trifluoromethyl)phenyl)ethyl)-N-methylacetamide], the EC50 is 101 to 1000 nM.

For the compound `CN(C(=O)Cc1ccc2oc(=O)[nH]c2c1)[C@H](CN1CC[C@H](O)C1)c1cccc(C(N)=O)c1` [Example 160, 3-((S)-2-((S)-3-hydroxypyrrolidin-1-yl)-1-(N-methyl-2-(2-oxo-2,3-dihydrobenzo[d]oxazol-5-yl)acetamido)ethyl)benzamide], the EC50 is at most 50 nM.

The compound `CN(C(=O)Cc1ccc2ncc(=O)[nH]c2c1)[C@H](CN1CC[C@H](O)C1)c1cccc(-c2noc(C(F)(F)F)n2)c1` [Example 34, N-((S)-2-((S)-3-hydroxypyrrolidin-1-yl)-1-(3-(5-(trifluoromethyl)-1,2,4-oxadiazol-3-yl)phenyl)ethyl)-N-methyl-2-(3-oxo-3,4-dihydroquinoxalin-6-yl)acetamide] came in with an EC50 of at most 50 nM.

Consider `CN(C(=O)Cc1ccc2c(c1)NC(=O)C2)[C@H](CN1CC[C@H](O)C1)c1cccc(-c2noc(C(F)(F)F)n2)c1` [Example 179, N-((S)-2-((S)-3-hydroxypyrrolidin-1-yl)-1-(3-(5-(trifluoromethyl)-1,2,4-oxadiazol-3-yl)phenyl)ethyl)-N-methyl-2-(2-oxoindolin-6-yl)acetamide], for which the EC50 is at most 50 nM.

In the case of `CN(C(=O)Cc1ccc2sc(=O)[nH]c2c1)[C@H](CN1CC[C@H](O)C1)c1cccc(-c2ncc[nH]2)c1` [Example 191, N-((S)-1-(3-(1H-imidazol-2-yl)phenyl)-2-((S)-3-hydroxypyrrolidin-1-yl)ethyl)-N-methyl-2-(2-oxo-2,3-dihydrobenzo[d]thiazol-5-yl)acetamide], the EC50 was at most 50 nM.

As for `CN(C(=O)Cc1ccc2c(c1)NC(=O)C(C)(C)S2(=O)=O)[C@H](CN1CC[C@H](O)C1)c1cccc(OC(F)(F)F)c1` [Example 148, 2-(2,2-dimethyl-1,1-dioxido-3-oxo-3,4-dihydro-2H-benzo[b][1,4]thiazin-6-yl)-N-((S)-2-((S)-3-hydroxypyrrolidin-1-yl)-1-(3-(trifluoromethoxy)phenyl)ethyl)-N-methylacetamide], the EC50 was at most 50 nM.

`CN(C(=O)Cc1ccc2c(c1)NC(=O)CO2)[C@H](CN1CC[C@H](O)C1)c1cccc(OCC(=O)O)c1` [Example 167, 2-(3-((S)-2-((S)-3-hydroxypyrrolidin-1-yl)-1-(N-methyl-2-(3-oxo-3,4-dihydro-2H-benzo[b][1,4]oxazin-6-yl)acetamido)ethyl)phenoxy)acetic acid] yielded an EC50 of at most 50 nM.

The compound `CN(C(=O)Cc1ccc2c(c1)NC(=O)CS2(=O)=O)[C@H](CN1CC[C@H](O)C1)c1cccc(OC(F)F)c1` [Example 11, N-((S)-1-(3-(difluoromethoxy)phenyl)-2-((S)-3-hydroxypyrrolidin-1-yl)ethyl)-2-(1,1-dioxido-3-oxo-3,4-dihydro-2H-benzo[b][1,4]thiazin-6-yl)-N-methylacetamide] returned an EC50 of at least 1000 nM.

The compound `CN(C(=O)Cc1ccc2c(c1)NC(=O)CS2(=O)=O)[C@H](CN1CC[C@H](O)C1)c1cc(F)cc(OCC(F)(F)F)c1` [Example 149, 2-(1,1-dioxido-3-oxo-3,4-dihydro-2H-benzo[b][1,4]thiazin-6-yl)-N-((S)-1-(3-fluoro-5-(2,2,2-trifluoroethoxy)phenyl)-2-((S)-3-hydroxypyrrolidin-1-yl)ethyl)-N-methylacetamide] returned an EC50 of at most 50 nM.

`CC(C)(C)OC(=O)Cn1c(=O)oc2ccc(CC(=O)N[C@H](CN3CCCC3)c3ccccc3)cc21` [Example 82, (S)-tert-butyl-2-(2-oxo-5-(2-oxo-2-(1-phenyl-2-(pyrrolidin-1-yl)ethylamino)ethyl)benzo[d]oxazol-3(2H)-yl)acetate] registered an EC50 of at most 50 nM.

Regarding `CN(C(=O)Cc1ccc2c(c1)NC(=O)CS2(=O)=O)C(CN1CC[C@H](O)C1)c1ccc(OC(F)(F)F)cc1` (stereo in doubt) [Example 142, 2-(1,1-dioxido-3-oxo-3,4-dihydro-2H-benzo[b][1,4]thiazin-6-yl)-N-((S)-2-((S)-3-hydroxypyrrolidin-1-yl)-1-(4-(trifluoromethoxy)phenyl)ethyl)-N-methylacetamide], the EC50 is at most 50 nM.

`CN(C(=O)Cc1ccc2c(c1)NC(=O)C2)[C@H](CN1CC[C@H](O)C1)c1cccc(C(N)=O)c1` [Example 24, 3-((S)-2-((S)-3-hydroxypyrrolidin-1-yl)-1-(N-methyl-2-(2-oxoindolin-6-yl)acetamido)ethyl) benzamide] registered an EC50 of at most 50 nM.

As for `CN(C(=O)Cc1ccc2c(c1)NC(=O)CS2(=O)=O)[C@H](CN1CC[C@H](O)C1)c1cccc(OCC(=O)NS(C)(=O)=O)c1` [Example 174, 2-(1,1-dioxido-3-oxo-3,4-dihydro-2H-benzo[b][1,4]thiazin-6-yl)-N-((S)-2-((S)-3-hydroxypyrrolidin-1-yl)-1-(3-(2-(methylsulfonamido)-2-oxoethoxy)phenyl)ethyl)-N-methylacetamide], the EC50 was at most 50 nM.

`CN(C(=O)Cc1ccc2c(c1)NC(=O)CS2(=O)=O)[C@H](CN1CCC(O)C1)c1ccccc1` (stereo in doubt) [Example 120, 2-(1,1-dioxido-3-oxo-3,4-dihydro-2H-benzo[b][1,4]thiazin-6-yl)-N-((S)-2-((S)-3-hydroxypyrrolidin-1-yl)-1-phenylethyl)-N-methylacetamide]: the EC50 was at most 50 nM.

As for `CC(C)(C(=O)N[C@H](CN1CC[C@H](O)C1)c1ccccc1)c1ccc2oc(=O)[nH]c2c1` [Example 55, N-((S)-2-((S)-3-hydroxypyrrolidin-1-yl)-1-phenylethyl)-2-methyl-2-(2-oxo-2,3-dihydrobenzo[d]oxazol-5-yl)propanamide], the EC50 is at most 50 nM.

`CCc1nc(-c2cccc([C@@H](CN3CC[C@H](O)C3)N(C)C(=O)Cc3ccc4c(c3)NC(=O)C4)c2)no1` [Example 214, N-((S)-1-(3-(5-ethyl-1,2,4-oxadiazol-3-yl)phenyl)-2-((S)-3-hydroxypyrrolidin-1-yl)ethyl)-N-methyl-2-(2-oxoindolin-6-yl)acetamide] gave an EC50 of at most 50 nM.

Turning to `CN(C(=O)Cc1ccc2c(c1)NC(=O)C2)[C@H](CN1CC[C@H](O)C1)c1cccc(-c2ncon2)c1` [Example 185, N-((S)-1-(3-(1,2,4-oxadiazol-3-yl)phenyl)-2-((S)-3-hydroxypyrrolidin-1-yl)ethyl)-N-methyl-2-(2-oxoindolin-6-yl)acetamide 2,2,2-trifluoroacetate], the EC50 was at most 50 nM.

As for `CN(C(=O)Cc1ccc2c(c1)NC(=O)C2)[C@H](CN1CC[C@H](O)C1)c1cccc(-c2nccn2CC2CC2)c1` [Example 226, N-((S)-1-(3-(1-(cyclopropylmethyl)-1H-imidazol-2-yl)phenyl)-2-((S)-3-hydroxypyrrolidin-1-yl)ethyl)-N-methyl-2-(2-oxoindolin-6-yl)acetamide], the EC50 is at most 50 nM.

Regarding `CN(C(=O)Cc1ccc2c(c1)NC(=O)C2)[C@H](CN1CC[C@H](O)C1)c1cccc(-c2nnco2)c1` [Example 223, N-((S)-1-(3-(1,3,4-oxadiazol-2-yl)phenyl)-2-((S)-3-hydroxypyrrolidin-1-yl)ethyl)-N-methyl-2-(2-oxoindolin-6-yl)acetamide], the EC50 was at most 50 nM.

`CN(C(=O)Cc1ccc2ncc(=O)[nH]c2c1)[C@H](CN1CC[C@H](O)C1)c1cccc(C(=O)O)c1` [Example 31, 3-((S)-2-((S)-3-hydroxypyrrolidin-1-yl)-1-(N-methyl-2-(3-oxo-3,4-dihydroquinoxalin-6-yl)acetamido)ethyl)benzoic acid]: the EC50 is at most 50 nM.

Take `O=C(O)Cn1c(=O)oc2ccc(CC(=O)N[C@H](CN3CCCC3)c3ccccc3)cc21` [Example 83, (S)-2-(2-oxo-5-(2-oxo-2-(1-phenyl-2-(pyrrolidin-1-yl)ethylamino)ethyl)benzo[d]oxazol-3(2H)-yl)acetic acid hydrochloride]: the EC50 was at most 50 nM.

In turn, `CN(C(=O)Cc1ccc2c(c1)NC(=O)CS2(=O)=O)[C@H](CN1CC[C@H](O)C1)C1CCCCC1` [Example 125, N-((S)-1-cyclohexyl-2-((S)-3-hydroxypyrrolidin-1-yl)ethyl)-2-(1,1-dioxido-3-oxo-3,4-dihydro-2H-benzo [b][1,4]thiazin-6-yl)-N-methylacetamide] came in with an EC50 of at most 50 nM.

In the case of `CCN(CC)C(=O)c1cccc([C@@H](CN2CC[C@H](O)C2)N(C)C(=O)Cc2ccc3c(c2)NS(=O)(=O)C3)c1` [Example 208, 3-((S)-1-(2-(2,2-dioxido-1,3-dihydrobenzo[c]isothiazol-6-yl)-N-methylacetamido)-2-((S)-3-hydroxypyrrolidin-1-yl)ethyl)-N,N-diethylbenzamide], the EC50 is at most 50 nM.

For `COc1cccc([C@@H](CN2CC[C@H](O)C2)N(C)C(=O)Cc2ccc3c(c2)NC(=O)CS3(=O)=O)c1` [Example 126, 2-(1,1-dioxido-3-oxo-3,4-dihydro-2H-benzo[b][1,4]thiazin-6-yl)-N-((S)-2-((S)-3-hydroxypyrrolidin-1-yl)-1-(3-methoxyphenyl)ethyl)-N-methylacetamide], the EC50 was at most 50 nM.

The record behind these values is patent publication US9487510B2, “Substituted heterocyclic acetamides as kappa opioid receptor (KOR) agonists” (Dr. Reddy's Laboratories Ltd., priority 2012, dated 2016).
